Test results reported in PubChem BioAssay (NCI).
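GI50 is the concentration that inhibits growth by half. TGI marks complete inhibition of growth.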

Key:
Assay in all cases: NCI tumour cell line growth inhibition, 384-well format
786-0 renal = tested on: 786-0 renal
A498 renal = tested on: A498 renal
A549 NSCLC = tested on: A549 NSCLC
ACHN renal = tested on: ACHN renal
BT-549 breast = tested on: BT-549 breast
CAKI-1 renal = tested on: CAKI-1 renal
CCRF-CEM leukemia = tested on: CCRF-CEM leukemia
COLO 205 colon = tested on: COLO 205 colon
DU-145 prostate = tested on: DU-145 prostate
EKVX NSCLC = tested on: EKVX NSCLC
HCC-2998 colon = tested on: HCC-2998 colon
HCT-116 colon = tested on: HCT-116 colon
HCT-15 colon = tested on: HCT-15 colon
HL-60(TB) leukemia = tested on: HL-60(TB) leukemia
HOP-92 NSCLC = tested on: HOP-92 NSCLC
HS 578T breast = tested on: HS 578T breast
HT29 colon = tested on: HT29 colon
IGROV1 ovarian = tested on: IGROV1 ovarian
K-562 leukemia = tested on: K-562 leukemia
KM12 colon = tested on: KM12 colon
LOX IMVI melanoma = tested on: LOX IMVI melanoma
M14 melanoma = tested on: M14 melanoma
MCF7 breast = tested on: MCF7 breast
MDA-MB-231 breast = tested on: MDA-MB-231 breast
MDA-MB-435 melanoma = tested on: MDA-MB-435 melanoma
NCI-H226 lung = tested on: NCI-H226 lung
NCI-H322M lung = tested on: NCI-H322M lung
NCI-H522 lung = tested on: NCI-H522 lung
NCI/ADR-RES ovarian = tested on: NCI/ADR-RES ovarian
OVCAR-3 ovarian = tested on: OVCAR-3 ovarian
OVCAR-4 ovarian = tested on: OVCAR-4 ovarian
OVCAR-5 ovarian = tested on: OVCAR-5 ovarian
OVCAR-8 ovarian = tested on: OVCAR-8 ovarian
PC-3 prostate = tested on: PC-3 prostate
RPMI-8226 leukemia = tested on: RPMI-8226 leukemia
SF-295 CNS = tested on: SF-295 CNS
SF-539 CNS = tested on: SF-539 CNS
SK-MEL-2 melanoma = tested on: SK-MEL-2 melanoma
SK-MEL-28 melanoma = tested on: SK-MEL-28 melanoma
SK-OV-3 ovarian = tested on: SK-OV-3 ovarian
SN12C renal = tested on: SN12C renal
SNB-75 CNS = tested on: SNB-75 CNS
SR leukemia = tested on: SR leukemia
SW-620 colon = tested on: SW-620 colon
T-47D breast = tested on: T-47D breast
TK-10 renal = tested on: TK-10 renal
UACC-257 melanoma = tested on: UACC-257 melanoma

For `C[C@H](NC(=O)c1c(C(F)F)nn(C)c1Oc1cccc(C(F)(F)F)c1)c1ccc(C(=O)O)cc1`, the GI50 ([…]-0 renal) was over 100 µM, the TGI (786-0 renal) was over 100 µM and the GI50 (A498 renal) was over 100 µM. The TGI (A498 renal) was over 100 µM, the GI50 (A549 NSCLC) was over 100 µM and the TGI (A549 NSCLC) was over 100 µM. The GI50 (ACHN renal) was over 100 µM, the TGI (ACHN renal) was over 100 µM and the GI50 (BT-549 breast) was over 100 µM. For the same molecule, the TGI (BT-549 breast) was over 100 µM, the GI50 (CAKI-1 renal) was over 100 µM and the TGI (CAKI-1 renal) was over 100 µM. For the same molecule, the GI50 (CCRF-CEM leukemia) was over 100 µM, the TGI (CCRF-CEM leukemia) was over 100 µM and the GI50 (COLO 205 colon) was over 100 µM. It also gave a TGI (COLO 205 colon) of over 100 µM, a GI50 (DU-145 prostate) of over 100 µM and a TGI (DU-145 prostate) of over 100 µM. The GI50 (EKVX NSCLC) was over 100 µM, the TGI (EKVX NSCLC) was over 100 µM and the GI50 (HCC-2998 colon) was over 100 µM. For the same molecule, the TGI (HCC-2998 colon) was over 100 µM, the GI50 (HCT-116 colon) was over 100 µM and the TGI (HCT-116 colon) was over 100 µM. The GI50 (HCT-15 colon) was over 100 µM, the TGI (HCT-15 colon) was over 100 µM and the GI50 (HL-60(TB) leukemia) was over 100 µM. The TGI (HL-60(TB) leukemia) was over 100 µM, the GI50 (HOP-92 NSCLC) was over 100 µM and the TGI (HOP-92 NSCLC) was over 100 µM. For the same molecule, the GI50 (HS 578T breast) was over 100 µM, the TGI (HS 578T breast) was over 100 µM and the GI50 (HT29 colon) was over 100 µM. The TGI (HT29 colon) was over 100 µM, the GI50 (IGROV1 ovarian) was over 100 µM and the TGI (IGROV1 ovarian) was over 100 µM. The GI50 (K-562 leukemia) was over 100 µM, the TGI (K-562 leukemia) was over 100 µM and the GI50 (KM12 colon) was over 100 µM. It also gave a TGI (KM12 colon) of over 100 µM, a GI50 (LOX IMVI melanoma) of over 100 µM and a TGI (LOX IMVI melanoma) of over 100 µM. It also gave a GI50 (M14 melanoma) of over 100 µM, a TGI (M14 melanoma) of over 100 µM and a GI50 (MCF7 breast) of over 100 µM. The TGI (MCF7 breast) was over 100 µM, the GI50 (MDA-MB-231 breast) was over 100 µM and the TGI (MDA-MB-231 breast) was over 100 µM. For the same molecule, the GI50 (MDA-MB-435 melanoma) was over 100 µM, the TGI (MDA-MB-435 melanoma) was over 100 µM and the GI50 (NCI-H226 lung) was over 100 µM. The TGI (NCI-H226 lung) was over 100 µM, the GI50 (NCI-H322M lung) was over 100 µM and the TGI (NCI-H322M lung) was over 100 µM. The GI50 (NCI-H522 lung) was over 100 µM, the TGI (NCI-H522 lung) was over 100 µM and the GI50 (NCI/ADR-RES ovarian) was over 100 µM. The TGI (NCI/ADR-RES ovarian) was over 100 µM, the GI50 (OVCAR-3 ovarian) was over 100 µM and the TGI (OVCAR-3 ovarian) was over 100 µM. For the same molecule, the GI50 (OVCAR-4 ovarian) was over 100 µM, the TGI (OVCAR-4 ovarian) was over 100 µM and the GI50 (OVCAR-5 ovarian) was over 100 µM. It also gave a TGI (OVCAR-5 ovarian) of over 100 µM, a GI50 (OVCAR-8 ovarian) of over 100 µM and a TGI (OVCAR-8 ovarian) of over 100 µM. For the same molecule, the GI50 (PC-3 prostate) was over 100 µM, the TGI (PC-3 prostate) was over 100 µM and the GI50 (RPMI-8226 leukemia) was over 61.1 µM. The TGI (RPMI-8226 leukemia) was over 100 µM, the GI50 (SF-295 CNS) was over 100 µM and the TGI (SF-295 CNS) was over 100 µM. For the same molecule, the GI50 (SF-539 CNS) was over 100 µM, the TGI (SF-539 CNS) was over 100 µM and the GI50 (SK-MEL-2 melanoma) was over 100 µM. It also gave a TGI (SK-MEL-2 melanoma) of over 100 µM, a GI50 (SK-MEL-28 melanoma) of over 100 µM and a TGI (SK-MEL-28 melanoma) of over 100 µM. For the same molecule, the GI50 (SK-OV-3 ovarian) was over 100 µM, the TGI (SK-OV-3 ovarian) was over 100 µM and the GI50 (SN12C renal) was over 100 µM. It also gave a TGI (SN12C renal) of over 100 µM, a GI50 (SNB-75 CNS) of over 100 µM and a TGI (SNB-75 CNS) of over 100 µM. It also gave a GI50 (SR leukemia) of over 100 µM, a TGI (SR leukemia) of over 100 µM and a GI50 (SW-620 colon) of over 100 µM. For the same molecule, the TGI (SW-620 colon) was over 100 µM, the GI50 (T-47D breast) was over 100 µM and the TGI (T-47D breast) was over 100 µM. It also gave a GI50 (TK-10 renal) of over 100 µM, a TGI (TK-10 renal) of over 100 µM and a GI50 (UACC-257 melanoma) of over 100 µM. The TGI (UACC-257 melanoma) was over 100 µM.
